No end group written: not given here.
Tests used:
[1] = Alexa 647-CRAMP binding to Affi-Gel HP beads, direct and with unlabeled peptides (flow cytometry); conditions: 20-fold excess (5 μM) unlabeled peptide, 250 nM Alexa 647-labeled CRAMP, 1 h at room temperature, n = 3–4
Experimental: FIGURE 5 | Secondary structure of mature CRAMP is required for binding to heparan compounds. (A) Sequence and pI (in parentheses) of the 34 amino acid long mature CRAMP and four 10- or 20-mer peptides that span amino acids 4–13 (CR-1), 13–22 (CR-2), 24–33 (CR-3), or 4–23 (CR-4) of mature CRAMP. (B) Affi-Gel HP beads were incubated with 250 nM of Alexa 647-labeled CRAMP without or with 5 μM of unlabeled CRAMP, heat-treated CRAMP, CR-1, CR-2, CR-3, or CR-4 peptides for 1 h at room temperature. […] (C) ITC analyses of heat-treated CRAMP binding to HP. The fitted heat curve of titrating CRAMP binding to HP is shown. TEXT PRINTED IN THE PICTURE: (A) CRAMP: (10.0) | (A) CR-1: (9.6) | (A) CR-2: (10.6) | (A) CR-3: (5.9) | (A) CR-4: (10.4) DOUBTS OF THE COPYIST ABOUT THIS PICTURE: Panel A: the numbers in brackets after the peptide names are printed without any measure or unit in the picture, so they are given as printed, without a measure.
(§1) Affi-Gel HP beads were washed and resuspended in PBS. Affi-Gel HP beads (20 μL) were incubated with 0.5 μM Alexa 647-labeled CRAMP without or with 20 μg/mL HP, chemically desulfated HP, or chemoenzymatically sulfated H for 1 h at room temperature. Affi-Gel HP beads were washed with PBS, and the Alexa 647-labeled CRAMP bound to them was assessed by flow cytometry.

S. aureus USA300 [2] = test: Bacteria live/dead staining (BaclightGreen / propidium iodide); type: cell-based, Staphylococcus aureus; conditions: 0.5 μM CRAMP without or with 5 μg/mL compound, 30 min at room temperature, propidium iodide 10 μg/mL
Experimental: (§2) (A) Schematics of HS/HP structure. […] (F) BaclightGreen-labeled S. aureus (~400 cfu) was incubated with 0.5 μM CRAMP without or with 5 μg/mL HP, NDS-HP, 2ODS-HP, 6ODS-HP, H, NS-H, or NS2OS-H for 30 min at room temperature. Bacteria were washed, incubated with 10 μg/mL propidium iodide for 15 min at 4°C, and live (green) and dead (red) bacteria were visualized by fluorescence microscopy.
S. aureus USA300 was stained by BaclightGreen (Thermo Fisher) following the manufacturer’s instructions. Briefly, an overnight culture of S. aureus was resuspended in PBS and incubated with 100 μM BaclightGreen for 15 min at room temperature. […] Bacteria were mounted on glass slides and images were captured with a fluorescence microscope (Zeiss Axiovert 40 CFL). […]
Figure S1. A) CRAMP expression was measured in uninfected Wt corneas or Wt corneas isolated at 4 h post-S. aureus USA300 infection. […] Total RNA was purified from the corneal epithelium, and 1 ng of total RNA was analyzed by qRT-PCR for CRAMP or β-actin expression (n = 3, **p < 0.01). […] Bacterial killing was measured by plating serial dilutions onto TSA plates and counting colonies the following day. […] Bacteria were washed three times with buffer, incubated with 0.5 μM CRAMP for 2 h at 37°C, and % bacterial killing was determined by plating serial dilutions of samples (n = 4). […] Images were captured with a fluorescence microscope (Zeiss Axiovert 40 CFL). […]

CRAMP [3] = test: Alexa 647-CRAMP binding to Affi-Gel HP beads, competition by HP compounds (flow cytometry); design: species or system mouse; conditions: 20 μg/mL competitor, 0.5 μM Alexa 647-conjugated CRAMP, 1 h at room temperature, n = 4
Experimental: (§3) FIGURE 4 | 2-O-sulfated heparan compounds directly bind to CRAMP with high affinity. Alexa 647-conjugated CRAMP (0.5 μM) was incubated with Affi-Gel HP beads without or with 20 μg/mL of HP, NDS-HP, 2ODS-HP, or 6ODS-HP for 1 h at room temperature. CRAMP fluorescence associated with Affi-Gel HP beads was analyzed by flow cytometry. Results are shown as (A) % CRAMP binding and (B) mean fluorescence intensity (MFI) of CRAMP binding (n = 4, ***p < 0.001, ****p < 0.0001). ITC analyses for CRAMP binding to HP were performed at 25°C using a MicroCal iTC 200 titration calorimetry. The fitted heat curves of titrating CRAMP binding to (C) HP and (D) 2ODS-HP are shown.
as §1

CAP-18 = test: Inhibition by glycosaminoglycans of S. aureus killing by CAP-18; type: cell-based, rabbit; conditions: 5 μg/mL glycosaminoglycan, 0.5 μM CAP-18, ~500 cfu USA300, phosphate buffer pH 7.4, 2 h at 37°C, n = 6
Experimental: (§4) Samples were plated onto TSA plates, and viable bacteria (cfu) were counted the following day. Data are shown as % bacterial killing, where killing activity in the presence of cathelicidin only represents 100% (n = 6, *p < 0.05, ****p < 0.0001, one-way ANOVA, multiple comparisons).
as §2
(§5) Late log phase S. aureus USA300 was washed with phosphate buffer (8.2 mM Na2HPO4, 1.8 mM KH2PO4, pH 7.4) and approximately 500 cfu were incubated with cathelicidins with or without excess GAGs for 2 h at 37°C as indicated. Viable bacteria were enumerated by plating onto TSA plates and counting colonies the following day. Results are shown as % bacterial killing, where 100% killing represents data derived from the group of bacteria incubated with cathelicidins only.

S. aureus USA300 [4] = test: Pre-incubation of S. aureus with glycosaminoglycans, washing, then killing by cathelicidin; type: cell-based, Staphylococcus aureus; conditions: 5 μg/ml glycosaminoglycan pre-incubated with 500 cfu USA300 30 min at 37°C, washed three times, then 0.5 μM CRAMP 2 h at 37°C, n = 4
Experimental: Figure S1. A) CRAMP expression was measured in uninfected Wt corneas or Wt corneas isolated at 4 h post-S. aureus USA300 infection. Briefly, eyes were enucleated, corneas were dissected, and isolated corneas were incubated with 10 mg/ml dispase II overnight at 4°C to peel off the corneal epithelium. Total RNA was purified from the corneal epithelium, and 1 ng of total RNA was analyzed by qRT-PCR for CRAMP or β-actin expression (n = 3, **p < 0.01). […] Bacterial killing was measured by plating serial dilutions onto TSA plates and counting colonies the following day. Results are shown as % bacterial survival (n = 4). Figure S2. […] Bacterial killing (%) was enumerated by plating serial dilutions onto TSA plates and counting colonies the following day (n = 5). B) Effects of pre-incubating S. aureus with glycosaminoglycans on bacterial killing by cathelicidins were examined by incubating 500 cfu of USA300 without or with 5 μg/ml HS, HP, DS, or CS for 30 min at 37°C. Bacteria were washed three times with buffer, incubated with 0.5 μM CRAMP for 2 h at 37°C, and % bacterial killing was determined by plating serial dilutions of samples (n = 4). Figure S3. […] Images were captured with a fluorescence microscope (Zeiss Axiovert 40 CFL). Quantification of % dead bacteria (out of total bacteria in field) is shown at the bottom. […] S. aureus-associated CRAMP fluorescence was analyzed by flow cytometry. […]

SMAP-29 = test: Inhibition by glycosaminoglycans of S. aureus killing by SMAP-29; type: cell-based, sheep; conditions: 5 μg/mL glycosaminoglycan, 0.5 μM SMAP-29, ~500 cfu USA300, phosphate buffer pH 7.4, 2 h at 37°C, n = 6
Experimental: as §4, §2, §5

CRAMP [5] = test: ITC of HP and 2ODS-HP binding to CRAMP; design: species or system mouse; conditions: 25.0°C, 50 mM HEPS pH 7.4, 150 mM NaCl
Experimental: as §3
ITC of CRAMP binding to HP and modified HP was carried out at 25.0°C using a MicroCal iTC 200 titration calorimetry system (Malvern, UK). A stock solution of CRAMP was diluted to 12.5 μM in 50 mM HEPS, pH 7.4, 150 mM NaCl, and approximately 300 μL of this solution was loaded into the ITC cell and titrated with 25 μM of HP or 2ODS-HP in the same buffer. Briefly, titration injection of HP or 2ODS-HP consisted of a first injection of 0.4 μL followed by 18 consecutive injections of 2 μL of 0.8 s duration and with a 2.5 min interval between injections. […] The enthalpy change of binding (ΔH), the binding affinity, and the binding stoichiometry were determined.

CRAMP [6] = test: Inhibition by glycosaminoglycans of S. aureus killing by CRAMP; type: cell-based, mouse; conditions: 5 μg/mL glycosaminoglycan, 0.5 μM CRAMP, ~500 cfu USA300, phosphate buffer pH 7.4, 2 h at 37°C, n = 6
Experimental: as §4, §2, §5
(§6) Figure S1. A) CRAMP expression was measured in uninfected Wt corneas or Wt corneas isolated at 4 h post-S. aureus USA300 infection. Briefly, eyes were enucleated, corneas were dissected, and isolated corneas were incubated with 10 mg/ml dispase II overnight at 4°C to peel off the corneal epithelium. Total RNA was purified from the corneal epithelium, and 1 ng of total RNA was analyzed by qRT-PCR for CRAMP or β-actin expression (n = 3, **p < 0.01). […] Bacterial killing was measured by plating serial dilutions onto TSA plates and counting colonies the following day. Results are shown as % bacterial survival (n = 4). Figure S2. […] Bacterial killing (%) was enumerated by plating serial dilutions onto TSA plates and counting colonies the following day (n = 5). B) Effects of pre-incubating S. aureus with glycosaminoglycans on bacterial killing by cathelicidins were examined by incubating 500 cfu of USA300 without or with 5 μg/ml HS, HP, DS, or CS for 30 min at 37°C. Bacteria were washed three times with buffer, incubated with 0.5 μM CRAMP for 2 h at 37°C, and % bacterial killing was determined by plating serial dilutions of samples (n = 4). Figure S3. S. aureus USA300 stained with BaclightGreen was incubated with 0.5 μM CRAMP in the absence or presence of 5 μg/ml HP, NDS-HP, 2ODS-HP, 6ODS-HP, H, NS-H, or NS2OS-H for 30 min at room temperature. Bacteria were washed and incubated with 10 μg/ml propidium iodide for 15 min on ice. Images were captured with a fluorescence microscope (Zeiss Axiovert 40 CFL). Quantification of % dead bacteria (out of total bacteria in field) is shown at the bottom. Figure S4. Alexa 647-conjugated CRAMP (0.5 μM) was incubated with fixed S. aureus USA300 without or with 5 μg/ml of the indicated glycosaminoglycans and chemically-desulfated HP compounds for 1 h at room temperature. S. aureus-associated CRAMP fluorescence was analyzed by flow cytometry. Representative FACS density plots are shown where heparan compounds containing 2-O-sulfated motifs decreased Alexa CRAMP binding by over 79% compared to the control (No GAG), except for NDS-HP where the reduction was approximately 65%. Fig. S5. Relative mRNA levels of A) Ndst1 and B) Sdc1 in the corneal epithelium of Hs2st^fl/fl, Krt12Cre, and Hs2st^fl/fl/Krt12Cre mice (n = 3).

LL-37 = test: Inhibition by glycosaminoglycans of S. aureus killing by LL-37; type: cell-based, human; conditions: 5 μg/mL glycosaminoglycan, 1 μM LL-37, ~500 cfu USA300, phosphate buffer pH 7.4, 2 h at 37°C, n = 6
Experimental: as §4, §2, §5

CRAMP [7] = test: Alexa 647-CRAMP binding to fixed S. aureus, inhibition by glycosaminoglycans (flow cytometry); design: species or system mouse; conditions: 0.5 μM Alexa 647-conjugated CRAMP
Experimental: Alexa 647-conjugated CRAMP (0.5 μM) was incubated with 2% paraformaldehyde-fixed Staphylococcus aureus USA300 without or with 5 μg/mL HP, HS, CS, DS, NDS-HP, 6ODS-HP, or 2ODS-HP for 1 h at room temperature. S. aureus-associated CRAMP fluorescence was analyzed by flow cytometry. Results are shown as % Alexa CRAMP binding (n = 3, ****p < 0.0001).
Alexa 647 fluorophore was conjugated to CRAMP using the Lightning-Link Rapid FluoProbes647H labeling kit following the manufacturer’s instructions. S. aureus USA300 fixed in 2% paraformaldehyde for 20 min was resuspended in 20 μL of phosphate buffer and incubated with 0.5 μM of Alexa 647-labeled CRAMP for 30 min at room temperature without or with glycosaminoglycans. Unbound Alexa 647-labeled CRAMP was removed by washing with phosphate buffer, and Alexa 647-labeled CRAMP bound to bacteria was assessed by flow cytometry.
as §6

Row | Substance | Inhibition of Alexa CRAMP binding to HP beads by unlabeled peptide [1] | Live (green) / dead (red) state of most bacteria (S. aureus USA300 [2]) | Inhibition of CRAMP binding to HP beads (CRAMP [3]) | Inhibition of S. aureus killing by CAP-18 (CAP-18) | Inhibition of bacterial killing by cathelicidins after pre-incubation with bacteria and washing away (S. aureus USA300 [4]) | Inhibition of S. aureus killing by SMAP-29 (SMAP-29) | Kd (CRAMP [5]; 12.5 μM CRAMP in cell, titrated with 25 μM HP, read-out: Binding affinity for CRAMP binding to HP (ITC)) | Inhibition of S. aureus killing by CRAMP (CRAMP [6]) | Inhibition of S. aureus killing by LL-37 (LL-37) | Reduction of mean fluorescence intensity (MFI) of CRAMP binding to HP beads compared to control (CRAMP [3]) | Heat changes on incubation with CRAMP (ITC) (CRAMP [5]; 12.5 μM CRAMP titrated with 25 μM 2ODS-HP) | Decrease of MFI of Alexa-labeled CRAMP binding to S. aureus compared to control (CRAMP [7]; 5 μg/mL glycosaminoglycan, 2% paraformaldehyde-fixed S. aureus USA300, 1 h at room temperature, n = 3) | Reduction of proportion of CRAMP-bound bacteria (Alexa CRAMP binding, FACS density plots) compared to No GAG (CRAMP [7]; 5 μg/ml glycosaminoglycan, fixed S. aureus USA300, 1 h at room temperature, representative plots)
1 | CR-4: 20-mer peptide, amino acids 4–23 of mature CRAMP (LAGLLRKGGEKIGEKLKKIG; Cathelicidin antimicrobial peptide; UniProt P51437 138-157, looked up, fragment) | 34.7% |  |  |  |  |  |  |  |  |  |  |  | 
2 | GLLRKGGEKIGEKLKKIGQKIKNFFQKLVPQPEQ [CRAMP] | 92.7% | dead |  |  |  |  |  |  |  |  |  |  | 
3 | heparin [HP] |  |  | over 75% | over 70% | did not inhibit | over 70% | 0.0452 µM | over 70% | over 70% |  |  |  | 
4 | 2-O-desulfated HP [2ODS-HP] |  |  | 25% | significantly inhibited the ability of HP to inhibit |  | significantly inhibited the ability of HP to inhibit |  | significantly inhibited the ability of HP to inhibit | significantly inhibited the ability of HP to inhibit | not | did not produce significant heat changes | no effect | not

Source: paper PMC12806164, “Epithelial Heparan Sulfate Promotes Staphylococcus aureus Corneal Infection by Inhibiting Cathelicidins” (Proteoglycan research, 2025)
